Values quoted from earlier work as cited in patent publication US20220142894A1, “A PROCESS OF COLORING KERATINOUS MATERIAL COMPRISING THE USE OF AN ORGANOSILICON COMPOUND, AN EFFECT PIGMENT, AND A SEALING REAGENT V” (Henkel AG & Co. KGaA, priority 2019, published 2022).

Conditions: 25° C.

| solubility in water (in words) | Compound | solubility in water |
| --- | --- | --- |
| highly soluble | O=C([O-])C1=NN(c2ccc(S(=O)(=O)[O-])cc2)C(=O)C1N=Nc1ccc(S(=O)(=O)[O-])cc1.[Na+].[Na+].[Na+] (centres unmarked) [Acid Yellow 23, trisodium salt of 4,5-dihydro-5-oxo-1-(4-sulfophenyl)-4-((4-sulfophenyl)azo)-1H-pyrazole-3-carboxylic acid] |  |
|  | O=S(=O)([O-])c1ccc(N=Nc2c(O)ccc3ccccc23)cc1.[Na+] [Acid Orange 7, sodium salt of 4-[(2-hydroxy-1-naphthyl)azo]benzene sulphonate] | more than 7 g/L |
|  | Nc1cc(S(=O)(=O)[O-])cc2cc(S(=O)(=O)[O-])c(N=Nc3ccccc3)c(O)c12.[Na+].[Na+] [Acid Red 33, disodium salt of 5-amino-4-hydroxy-3-(phenylazo)-naphthalene-2,7-disulphonate] | 2500 µg/mL |
|  | CCN(Cc1cccc(S(=O)(=O)[O-])c1)c1ccc(C(=C2C=CC(=[N+](CC)Cc3cccc(S(=O)(=O)[O-])c3)C=C2)c2ccccc2S(=O)(=O)[O-])cc1.[Na+].[Na+] [Acid Blue 9] | more than 20 % by weight |
|  | O=C([O-])c1c(Cl)c(Cl)c(Cl)c(Cl)c1-c1c2c(Br)cc(=O)c(Br)c-2oc2c(Br)c(O)cc(Br)c12.O=C([O-])c1c(Cl)c(Cl)c(Cl)c(Cl)c1-c1c2c(Br)cc(=O)c(Br)c-2oc2c(Br)c(O)cc(Br)c12.[Na+].[Na+] [Acid Red 92, disodium salt of 3,4,5,6-tetrachloro-2-(1,4,5,8-tetrabromo-6-hydroxy-3-oxoxanthen-9-yl)benzoic acid] | greater than 10 g/L |
